# Reference: paper PMC8264259, “A Novel Ruthenium(II) Complex With Lapachol Induces G2/M Phase Arrest Through Aurora-B Kinase Down-Regulation and ROS-Mediated Apoptosis in Human Prostate Adenocarcinoma Cells” (Frontiers in Oncology, 2021)
# What was measured:
# calf thymus DNA (ct-DNA) = experiment: DNA minor groove interaction assay with Hoechst 33258; type: binding; settings: Hoechst 2.7 µM, ct-DNA 125 µM, complex 0-125 µM, 37°C
# Description: DNA minor groove interaction was assessed by examining the ability of the complexes to displace Hoechst 33258 (Thermo Fischer Scientific) from calf thymus DNA (ct-DNA) (Sigma-Aldrich). The ct-DNA solution was prepared by dilution of 2 mg of the ct-DNA in 1 ml of Tris-HCl buffer (4.5 mM Tris-HCl, 0.5 mM Tris-base, 50 mM NaCl, pH 7.4), and the concentration was determined by absorption spectrophotometric using the molar absorption coefficient 6600 mol^−1 dm^3 cm^−1 at 260 nm ([38]). Thus, the ct-DNA (125 µM) was incubated with Hoechst (2.7 µM), and the extinction of the fluorescence intensity was monitored by the addition of different concentrations (0–125 µM) of both complexes in Tris-HCl containing 10% of DMSO. Fluorescence emission spectra were recorded from […] to 500 nm after excitation wavelength of 343 nm, using an opaque 96-well plate, in a Synergy H1 Fluorescence Spectrophotometer (BioTek®), at 37°C.
# DU-145 cells [1] = experiment: Gene expression analysis by qPCR array (Human Cancer Drug Targets); type: cell-based; settings: DU-145, 1.0 µM, 12 h, mRNA, ΔΔCt vs vehicle
# Description: Briefly, DU-145 cells were seeded (1.0 × 10^6 cells/well) into six-well plates and maintained to attach at 37°C in 5% CO2. After 24 h, the cells were treated with 1.0 μM of the complex (2). DMSO (0.1% v/v) was used as the vehicle control. After 12 h of incubation, total RNA was isolated from the cells using the RNeasy® Mini kit (Qiagen, Germany) according to the manufacturer’s instructions. RNA was quantified by NanoDrop spectrophotometer (ND-2000; Thermo Fischer Scientific). The Agilent 2100 Bioanalyzer and Agilent RNA 6000 Nanochip kits were used to assess the total RNA quality as per manual instruction (Agilent, USA). The Agilent 2100 Expert software (Version B.02.07.SI532) was used with the Eukaryote Total RNA Nano assay on the Agilent 2100 bioanalyzer. No significant differences in RIN values were observed across the samples. Complementary DNA strands were synthesized using the RT^2 First Strand kit (Qiagen, Germany), following the manufacturer’s instructions. Gene expression profiling was performed using the RT^2 Profiler™ PCR Array Human Cancer Drug Targets (PAHS 507Z, Qiagen) by qPCR. The reactions were conducted in the Applied Biosystems 7500 PCR System (Applied Biosystems, USA) thermocycler. The plate was heated to 95°C for 10 min, followed by 40 cycles of 95°C for 15 s and 60°C for 1 min, followed by the dissociation curve. The expression profile of 84 key drug targets genes was analyzed. Fold changes amplification for targeted genes was normalized to the housekeeping genes GAPDH and RPLP0 by the delta–delta cycle threshold method (ΔΔCt), and the cells treated with vehicle control (0.1% of DMSO v/v) was used as calibrator. The threshold cycle values of control wells were all within the ranges recommended by the PCR array user manual. Three independent biological replicates were performed. All experiments were performed in DNase/RNase free conditions. Genes were considered differentially regulated if the difference was ≥1.8-fold, which means that the gene expression in the compound-treated cells was at 1.8-fold that in the negative control-treated cells. Differences were considered significant at p ≤ 0.05. Statistical analysis of two groups was performed automatically according to the GeneGlobe Data Analysis Center (Qiagen, USA; https://geneglobe.qiagen.com/us/analyze).
# DU-145 cells [2] = experiment: Annexin-V/PI staining assay (flow cytometry); type: cell-based, human; settings: for population of apoptotic cells: 24 h, control group 5.9%
# Description: The measurement of cell death was performed by the guidelines of ([35]). Detection of apoptotic/necrotic cells was determined by flow cytometry using the Alexa Fluor® 488 Annexin V/PI (Thermo Fischer Scientific), and the analyses were performed according to the manufacturer’s instructions. […] DMSO (0.1% v/v) was used as the vehicle control. Following 24 h of incubation, the cells were collected with Accutase® (Gibco-Invitrogen®), washed with PBS and resuspended in 200 μl of cold annexin-binding buffer. Next, 10 μl of Alexa Fluor® was added to Annexin V (50 μl/ml) staining buffer, and the mixture was incubated in the dark at 4°C for 15 min. Previously, the analyses, 100 μl of PI (2 μg/ml) was added, and then, the fluorescence was measured by flow cytometry in a FACSCanto flow cytometer (BD Biosciences, USA) using the Diva software. Ten thousand events were evaluated per experiment, and cellular debris was omitted from the analysis.
smiles,measurement,setting,value
"CC(C)=CCC1=C([O-])C(=O)c2ccccc2C1=O.F[P-](F)(F)(F)(F)F.[Ru+2].c1ccc(P(CP(c2ccccc2)c2ccccc2)c2ccccc2)cc1.c1cnc2c(c1)ccc1cccnc12 [complex (2), [Ru(Lap)(dppm)(phen)]PF6]",displacement of Hoechst 33258 from ct-DNA (fluorescence),calf thymus DNA (ct-DNA),decrease the fluorescence of the Hoechst-DNA system
same,"Fold change, AKT1",DU-145 cells [1],−2.6 fold
same,"Fold change, AKT2",DU-145 cells [1],−2.6 fold
same,"Fold change, AURKA",DU-145 cells [1],-5.3 fold
same,"Fold change, AURKB",DU-145 cells [1],-11.1 fold
same,"Fold change, AURKC",DU-145 cells [1],-3.0 fold
same,"Fold change, BCL2",DU-145 cells [1],-4.1 fold
same,"Fold change, BIRC5",DU-145 cells [1],-6.4 fold
same,"Fold change, CDC25A",DU-145 cells [1],−2.6 fold
same,"Fold change, CDK1",DU-145 cells [1],-4.5 fold
same,"Fold change, CDK2",DU-145 cells [1],−2.7 fold
same,"Fold change, CDK4",DU-145 cells [1],-4.6 fold
same,"Fold change, CDK5",DU-145 cells [1],−3.2 fold
same,"Fold change, EGFR",DU-145 cells [1],−4.1 fold
same,"Fold change, ERBB2",DU-145 cells [1],−2.4 fold
same,"Fold change, GSTP1",DU-145 cells [1],−2.9 fold
same,"Fold change, HDAC8",DU-145 cells [1],−1.8 fold
same,"Fold change, IGF1R",DU-145 cells [1],−2.7 fold
same,"Fold change, MDM4",DU-145 cells [1],2.8 fold
same,"Fold change, MTOR",DU-145 cells [1],−3.8 fold
same,"Fold change, PARP1",DU-145 cells [1],−2.7 fold
same,"Fold change, PARP2",DU-145 cells [1],−3.0 fold
same,"Fold change, PDGFRB",DU-145 cells [1],−2.0 fold
same,"Fold change, PIK3CA",DU-145 cells [1],−2.7 fold
same,"Fold change, PTGS2",DU-145 cells [1],2.1 fold
same,"Fold change, TOP2A",DU-145 cells [1],−2.1 fold
same,"Fold change, TOP2B",DU-145 cells [1],−2.8 fold
same,population of apoptotic cells,"DU-145 cells [2]; DU-145, 0.25 μM",11.8%
same,population of apoptotic cells,"DU-145 cells [2]; DU-145, 0.5 μM",22.7%
same,population of apoptotic cells,"DU-145 cells [2]; DU-145, 1.0 μM",41.4%
same,population of apoptotic cells,"DU-145 cells [2]; DU-145, 1.5 μM",70.2%
same,fold lower concentration required for the same effect of cisplatin,"DU-145 cells [2]; apoptotic DU-145 cells, vs cisplatin 25 μM",100 fold
